According to publication PMC9879403, “Oncolytic strategy using new bifunctional HDACs/BRD4 inhibitors against virus-associated lymphomas” (PLOS Pathogens, 2023):
Read-outs that look alike come from different tables or passages of the source.

Assays:
[1] = Toxicity study, oral administration at 100 mg/kg
[2] = tested on: HDACs; experiment: HDACs signaling by Western blot (H3K9Ac, H4K9Ac, Acetyl-tubulin); assay type: cell-based
[3] = tested on: KSHV; assay type: cell-based

For Cc1sc2c(c1C)C(c1ccc(Cl)cc1)=N[C@@H](CC(=O)OC(C)(C)C)c1nnc(C)n1-2 [(+)-JQ1, reference compound], the “Toxicity in the mice” value [1] was “severe toxicity”.

In the case of O=C(CCCCCCC(=O)Nc1ccccc1)NO [SAHA, suberoylanilide hydroxamic acid, reference compound], the “H3K9Ac, H4K9Ac and Acetyl-tubulin protein levels” value [2] is reported as “upregulated”.

With Cc1sc2c(c1C)C(c1ccc(Cl)cc1)=N[C@@H](CC(=O)O[C@H](C)c1ccc(C(=O)Nc3ccccc3N)cc1)c1nnc(C)n1-2 [009P1, (R)-1-(4-((2-aminophenyl)carbamoyl)phenyl)ethyl 2-((S)-4-(4-chlorophenyl)-2,3,9-trimethyl-6H-thieno[3,2-f][1,2,4]triazolo[4,3-a][1,4]diazepin-6-yl)acetate] the “Expression of viral genes (LANA, RTA, ORF26)” value [3] was “significantly increased” and the “H3K9Ac, H4K9Ac and Acetyl-tubulin protein levels” value ([2]; BCBL-1 cells, 48 h, Western blot) was “increased”.
